From ChEMBL document CHEMBL2448809, “UCSF DeRisi Lab MMV Box Apicoplast Screening”

Tested on: Plasmodium falciparum
Experiment: MMV: Compounds (1uM) were screened in a 72hr growth assay monitored by flow cytometry both in the presence and absence of supplemental isopentenyl pyrophosphate (IPP) 200uM. Compounds which fail to show anti-malarial activity when chemically rescued by IPP are therefore specific to the apicoplast. The values are expressed as the ratio of the corresponding activity with and without IPP, respectively.
Assay type: functional, W2

| SMILES | Ratio |
| --- | --- |
| O=c1nc(C=Cc2ccc(Br)cc2)oc2ccccc12 | 1.133 |
| CCN1CCN(c2cc(C)c3cc(NC(=O)c4ccc(OC)c(OC)c4)ccc3n2)CC1 | 0.8308 |
| CCOc1cc(Br)c(C(C)NC(=O)c2cccc(OC)c2)cc1OCC (configuration not stated) | 0.791 |
| CCN(CC)CCNc1ccnc2cc(Cl)ccc12 | 0.8734 |
| CCOc1ccc2c(c1)CN(Cc1ccc(Cl)cc1)CO2 | 0.8361 |
| CCCCN(CCCC)S(=O)(=O)c1ccc(NC(=O)c2ccco2)cc1 | 0.8649 |
| CC(C)(C)c1ccc(O)c(CNC2CCCCC2)c1 | 0.8356 |
| CCCc1c(C)nc2ccccc2c1O | 0.9683 |
| COc1cc(C(=O)Nc2nc3c(cc4c5c(cccc53)CC4)s2)cc(OC)c1OC | 0.8259 |
| O=c1cc(NC2CCN(CCCc3ccccc3)CC2)c2cc(Cl)ccc2o1 | 1.019 |
| CCCOCc1cc(CN2CCN(c3cccc(Cl)c3)CC2)c(O)c2ncccc12 | 0.9844 |
| COc1cccc(O)c1CN1CCC2(CCCN(Cc3ccc(F)cc3)C2)C1 (configuration not stated) | 0.8333 |
| COc1ccc2c(c1)C1(Nc3ccccc3-c3nc4ccccc4n31)C(=O)N2 (configuration not stated) | 0.9667 |
| COc1ccc(-c2nonc2NC(=O)c2cccc(C)c2)cc1OC | 1.066 |
| COc1cccc(NC(=O)[C@H](C(C)C)n2c(=O)[nH]c3ccccc3c2=O)c1 | 0.7619 |
| O=C(Nc1ccc(-c2nc3ccccc3[nH]2)cc1)c1ccc(Cl)c(Cl)c1 | 0.9295 |
| Cc1ccc(Cl)cc1N1CCN(CCCNC(=O)C2CCN(c3nc4ccccc4[nH]3)CC2)CC1 | 0.814 |
| O=C1CC(O)(C(F)(F)C(F)(F)F)Oc2ccccc21 (configuration not stated) | 0.8205 |
| COc1ccc(C(=O)NC(c2ccc(Cl)cc2Cl)c2cc(Cl)c3cccnc3c2O)cc1 (configuration not stated) | 0.9814 |
| Cc1cc(NCCN2CCCCC2)c2ccc3ccccc3c2n1 | 0.8873 |
| CC(=O)Nc1nnc(SCc2c(C)cc(C(C)(C)C)cc2C)s1 | 0.8169 |

| SMILES | Ratio |
| --- | --- |
| O=C(NC1CCN(Cc2ccccc2)CC1)c1cc(C(=O)NC2CCN(Cc3ccccc3)CC2)cc(C(=O)NC2CCN(Cc3ccccc3)CC2)c1 | 1.119 |
| O=C(Nc1cccc(-c2nc3ccccc3[nH]2)c1)c1cccc(NC(=O)c2ccco2)c1 | 0.6407 |
| CN1CCN(c2ncnc3c2[nH]c2ccc(Cl)cc23)CC1 | 0.9492 |
| OC(CNC1CCCCC1)Cn1c2ccc(I)cc2c2cc(I)ccc21 (configuration not stated) | 1.043 |
| Cl.Clc1cc(Br)ccc1-c1ccc(CNCC2CCNCC2)o1 | 1.173 |
| Cc1cc(Nc2cccc(F)c2)nc(NCc2ccccc2)n1 | 0.8333 |
| Oc1ccccc1CN1CCC2(CCCN(Cc3ccccc3F)C2)C1 (configuration not stated) | 0.9661 |
| O=C(Nc1ccccc1O)c1ccc(Oc2cccc(C(=O)Nc3ccccc3O)c2)cc1 | 0.75 |
| CC(C)CNC(=O)c1c(N)n(CCc2ccccc2F)c2nc3ccccc3nc12 | 0.63 |
| Brc1ccc(Nc2nc3ccccc3nc2Nc2ccc(Br)cc2)cc1 | 0.8871 |
| CCn1c(SCC(=O)Nc2cc(C(F)(F)F)ccc2Cl)nc2ccccc2c1=O | 1 |
| FC(F)(F)c1cccc(Nc2nc3ccccc3nc2Nc2cccc(C(F)(F)F)c2)c1 | 1.08 |
| CCCCc1ccc(NS(=O)(=O)c2cc3c4c(c2)CCN4C(=O)CC3)cc1 | 0.6295 |
| c1ccc2c(NCCc3c[nH]c4ccccc34)c3ccccc3nc2c1 | 1.057 |
| O=C(Nc1ccc(CN2CCOCC2)cc1)c1ccc(-c2cc(Cl)ccc2Cl)o1 | 0.9054 |
| CCOc1cc2c(cc1OCC)C(c1cc(OC)c(O)cc1Cl)NCC2 (configuration not stated) | 0.9254 |
| CC(C)(C)CC(C)(C)NCC(O)COc1ccc(Cl)cc1Cl (configuration not stated) | 0.8983 |
| Br.Cc1ccc(C)c(-c2csc(Nc3ccc(C)c(C)c3)n2)c1 | 1.048 |
| Cc1cc(C)c2nc(N3CCC(C(=O)NCCCN4CCC(N5CCCCC5)CC4)CC3)sc2c1 | 0.8033 |
| Cc1cc(NC(=O)c2ccc(-c3ccccc3)cc2)no1 | 0.9841 |
| CCCCCCc1cc2cc(-c3csc(C=Cc4ccccc4)n3)c(=O)oc2cc1O | 0.86 |

| SMILES | Ratio |
| --- | --- |
| c1ccc(Cn2c(N=Nc3c(Nc4ccccc4)ccc4ccccc34)nc3ccccc32)cc1 | 0.863 |
| COc1ccc(Br)cc1C1Nc2ccc3ccccc3c2C2=C1C(=O)CC(c1ccccc1)C2 (configuration not stated) | 0.8077 |
| COc1ccc(CCn2c(=N)c(C(=O)NCc3cccnc3)cc3c(=O)n4cccc(C)c4nc32)cc1 | 0.875 |
| CCCCCn1c(=N)n(CC(O)COc2cccc(C)c2)c2ccccc21.Cl (configuration not stated) | 1.128 |
| CCN(CC)CCn1c(=N)n(CC(O)c2ccc(Cl)c(Cl)c2)c2ccccc21.Cl (configuration not stated) | 0.9508 |
| COc1nc(Nc2ccc(C(C)C)cc2)nc(OC)n1 | 0.9479 |
| CCCc1c(CC)c(=N)c2ccccc2n1C | 1.043 |
| CCOC(=O)c1cnc2ccc(OC)cc2c1NCc1ccccc1 | 0.7154 |
| FC(F)(F)c1ccc(Nc2nnnc3ccccc23)cc1 | 1.052 |
| COc1ccc(CNC2CCN(c3ccc(NC(=O)c4cccc(Cl)c4)cc3)CC2)cc1OC | 1.145 |
| CCOc1ccc2nc(C)cc(Nc3ccc(N(C)C)cc3)c2c1.Cl | 1.135 |
| COc1ccc(CN2CCN(Cc3ccccc3)CC2)c(O)c1 | 1.283 |
| CN(C)c1ccc(N=Cc2ccc(N3CCOCC3)cc2)cc1 | 0.9558 |
| CCCCCCOC(=O)C1=C(C)NC(=O)NC1c1ccccc1F (configuration not stated) | 0.6566 |
| CSc1ccccc1C(=O)Nc1nc(-c2ccccn2)cs1 | 0.8125 |
| CCOc1ccc(-c2nonc2NC(=O)c2cccc(C)c2)cc1OCC | 0.6977 |
| CCOC(=O)c1cnc2c(C)cccc2c1Nc1ccc(C(C)=O)cc1 | 1.3 |
| COCCNCC(O)Cn1c2ccc(Cl)cc2c2cc(Cl)ccc21 (configuration not stated) | 0.88 |
| CC(C)CCNCC(O)Cn1c2ccccc2c2ccccc21.Cl (configuration not stated) | 0.9245 |
| O=C(Nc1ccsc1C(=O)NC1CCCCC1)c1ccc(F)cc1 | 0.9369 |
| Cc1ccc2cc3c(N)c4c(C)ccc(C)c4nc3nc2c1 | 1.095 |

| SMILES | Ratio |
| --- | --- |
| CCOc1ccc(-n2cc(-c3ccccc3)c3c(SCc4cc(C)ccc4C)ncnc32)cc1 | 0.9394 |
| CCOC(=O)c1cn(CC)c2cc(N3CCCCC3)c(F)cc2c1=O | 0.6824 |
| Oc1c2c(nc3cc(-c4ccccc4)nn13)CCCC2 | 0.8046 |
| COC(=O)c1ccc(Cl)c2c1C1C=CCC1C(c1cccc3ccccc13)N2 (configuration not stated) | 1.081 |
| COc1cc(-c2nc(-c3ccc(Sc4ccccc4)cc3)c(-c3ccccc3)[nH]2)cc(OC)c1O | 1.071 |
| COCCn1c(C)nc2ccccc2c1=O | 0.9589 |
| O=C(NCCCN1CCC(N2CCCCC2)CC1)C1=Cc2cc(Br)ccc2OC1 | 0.8966 |
| COc1ccc2sc(N(Cc3cccnc3)C(=O)c3ccc(C#N)cc3)nc2c1 | 0.8548 |
| Cc1cc(Nc2ccc(Cl)cc2)n2nc(C(F)(F)F)nc2n1 | 0.9718 |
| COc1ccc2c(c1OC)C(=O)N1c3ccccc3N=C(c3ccc(C)cc3)CC21 (configuration not stated) | 1.052 |
| CCCCCCc1cc(O)c2c3c(c(=O)oc2c1)CCC(C)C3 (configuration not stated) | 1.073 |
| OC(Cn1nnc2ccccc21)Cn1c2ccc(Br)cc2c2cc(Br)ccc21 (configuration not stated) | 0.9531 |
| O=C(O)C(=O)O.Oc1ccccc1CN1CCN(C(c2ccccc2)c2ccccc2)CC1 | 1.068 |
| Cc1cc(Nc2ccc3ccccc3c2)n2ncnc2n1 | 0.8919 |
| O=C(NCc1ccco1)C1CCN(S(=O)(=O)c2ccc(Cl)cc2)CC1 | 0.8889 |
| CC(C)=CCN1CCC(C(=O)Nc2ccc(-c3nc4ccccc4[nH]3)cc2)CC1 | 0.8533 |
| CCOc1cccc2sc(N(Cc3cccnc3)C(=O)C3CCCCC3)nc12 | 0.8788 |
| CCN(CC)CCNc1ncnc2c1[nH]c1ccc(Br)cc12 | 0.9508 |
| Cc1ccc(Nc2nc(-c3ccccn3)cs2)cc1 | 0.7264 |
